Results reported in EPA's ToxValDB 9.5 (doi:10.2903/j.efsa.2013.3213).

Tested on: Rattus norvegicus
Conditions: chronic

## CCOP(=O)=O.CCOP(=O)=O.CCOP(=O)=O.[Al+3] [Fosetyl aluminum]
  NOAEL: 232 mg/kg-day
